We go through one compound from patent US9381273B2, “Scaffolds with oxygen carriers, and their use in tissue regeneration” (Yissum Research Development Company of the Hebrew …, priority 2008, dated 2016).

Data set [1] deals with tet-off BMP2 Luc/GFP cells. The data set is described as follows: Cell survival in ectopic implants, bioluminescence imaging (BLI). In kind it is in vivo, C3H/HeN mice. Particulars: fibrin gel, 5% and 10% PFTBA groups pooled. From the text:
Imaging of cell viability in vivo—Tet-off BMP2 Luc/GFP Cell viability in the ectopic implants was quantified using the BLI system as was described (Bar, Zilberman et al. 2003). This CCCD tracking system (Roper Chemiluminescence Imaging System) consists of a CCCD camera (model LN/CCD-1300EB; Roper Scientific Inc.) equipped with an ST-133 controller and a 50-mm Nikon lens (Nikon Inc.). In this system, a pseudocolor image represents light intensity (blue signifies least intense and red most intense). The integrated light is the result of 2-minute exposure and acquisition. This CCCD camera converts photons to electrons with an efficiency of approximately 90% in the wavelength emission range of luciferin and converts approximately 1.8 electrons per count. Thus, every count represents 2 photons. The measurement is a total integrated signal of a constant exposure interval. […] The measurement can be verified by using a progressively larger region of interest (ROI) and by subtracting background readings. An increase in the ROI has no appreciable effect on the total intensity that is measured. Before light detection, the mice were anesthetized with a ketamine-xylazine mixture, which is injected intraperitoneally at 1 μl/g body weight. […]

In a further data set the test system is osteocalcin. The data set is described as follows: Host osteocalcin gene expression in vivo, BLI in OC/Luc transgenic mice. Details: species or system OC/Luc Tg mice. Particulars: fibrin gel with MSCs, 5 or 10% PFTBA pooled. The source says:
Osteocalcin gene expression in vivo—In order to analyze the effect of PFTBA supplementation on osteocalcin gene expression in vivo, transgenic mice (Oc-Luc), which harbor the Luc gene under the control of the osteogenic tissue-specific promoter, osteocalcin (Bar, Zilberman et al. 2003) were utilized. In order to monitor Luc activity in real-time a quantitative, the BLI system with the non-invasive cooled charge-coupled device (CCCD) camera was used. In this model, osteogenic activity in the transgenic mice was reported by Luc expression, which is activated by the osteocalcin promoter. This activity is detected by the CCCD as an emitted light following an injection of luciferin. The result values were normalized to constitutive tail expression of Luc, as previously described (Bar, Zilberman et al. 2003), so that the different mice that express the transgene with different intensities could be compared. In this experiment, 1×10^6 tet-off BMP2 cells in fibrin gel supplemented with 5 or 10% PFTBA, or not supplemented at all were implanted.

For data set [2], the system named is C3H/HeN mice. The data set is described as follows: Cell-mediated posterior spinal fusion, micro CT. The format is in vivo. Particulars: 10% PFTBA.
The next data set relates to tet-off BMP-2 MSCs. The data set is described as follows: LDH release cytotoxicity assay of MSCs in fibrin gel in vitro. In kind it is cell-based. Conditions: 10% PFTBA (w/v) in 100 μl fibrin gel, 10^6 MSCs, days 1 and 3 after cell seeding. The procedure: Effect of PFTBA on cell survival and oxygen levels—10^6 tet-off BMP-2 MSCs were suspended in 100 μl fibrin gel and cultured in 35-mm plates. In these conditions, the inner region of the hydrogel is hypoxic (data not shown). The experimental groups included hydrogels which included 0% or 10% PFTBA (w/v). Cell death was measured using the LDH release cytotoxicity assay on Days 1, 3, 7 and 14. […] Note that cytotoxicity was reduced over time, probably since nutrients and oxygen supply were more available to the remaining surviving cells. In a separate experiment, oxygen levels were measured in the center of MSC-loaded gels ([…] in 300 μl fibrin gel) using the Microx TX3 oxygen sensor (Presens, Precision Sensing GmbH, Regensburg, Germany).

In data set [3] the test system is C3H/HeN mice. The data set is described as follows: Radius bone defect regeneration, micro CT. Particulars: 2.5-mm radius defect, fibrin gel with MSCs, 14 days.
Method: Briefly, C3H/HeN female mice aged 6-8 weeks (n=16) were anesthetized using ketamine-xylazine mixture injected intraperitoneal. The skin of the forelimb was swabbed with isopropyl alcohol (70%). The skin was cut and 2.5 mm-long defect was created in the radius bone. Approximately one million Tet-off BMP2 cells were suspended in fibrin gel (Baxter) and supplemented with 5 or 10% PFTBA (Sigma, n=5 for each group) or not supplemented at all (n=6). The cell-gel mixture was incubated for 5 minutes in room temperature (RT) under sterile conditions to allow the fibrin to gel, and was subsequently implanted into the defect site. The mice were sacrificed 2 weeks post-transplantation; limbs were harvested and scanned using the μCT in order to analyze bone formation.
A quantitative morphometric analysis of the bone formation in nonunion fractures, was undertaken using μCT as previously described (Tai, K., et al., 2008, Tissue Eng Part A 14, 1709-1720). Mouse forelimbs, including ulna and radius, as well as native muscle and soft tissue were scanned using a Desktop Cone-Beam Micro-CT Scanner (μCT 40; Scanco Medical AG, Bruttisellen, Switzerland) at a spatial nominal resolution of 20 mm. A constrained 3D Gaussian filter (sigma=0.8 and support=1) was used to partly suppress the noise in the volumes. The bone tissue was segmented from marrow and soft tissue using a global thresholding procedure. In the nonunion fracture site, the evaluation was done only in the central 2-mm of the bone defect, including only newly formed bone. Morphometric indices were determined as described earlier.
Data set [4] concerns C3H/HeN mice. As to the kind of experiment: Ectopic bone formation by subcutaneous hydrogel implants with Tet-off BMP2 MSCs, micro CT and histology. Particulars: for bone volume of ectopic bone: SC implant, mean±standard error.
Method: Ectopic implantations—At near confluency, Tet-off BMP2 cells or Tet-off BMP2 Luc/GFP cells were trypsinized and counted using the trypan blue exclusion method. Aliquots of cells (one million Tet-off BMP2 cells or 3 million Tet-off BMP2 Luc/GFP cells) were resuspended in 50111 of fibrin or silk gel. Five, 10 or 20% [weight per volume (w/v)] Heptacosafluorotributylamine (Perfluorotributylamine, PFTBA, Sigma catalogue number H5262; Sigma-Aldrich, St Louis, Mo., USA) was added to the hydrogel just before implantations.
The cell-hydrogel mixture was injected subcutaneously in 8 weeks old female C3H/HeN mice, as follows: mice were anesthetized with a mixture of xylazine and ketamine (0.15% xylazine and 0.85% ketamine), which was injected intraperitoneally (i.p.) at 1 μl/g body weight. The area of injection was shaved and cleaned using 70% ethanol. Using 27G tuberculin syringe the cells-gel mixture was injected subcutaneously. Each mouse received 3 or 4 implants, consistent of 50 μl hydrogel in which cells and PFTBA were mixed. Mice where sacrificed after two weeks, and implants were harvested and fixed in 4% formalin.
Analysis of bone formation using micro CT imaging—In order to quantify bone formation in the ectopic implants, a high-resolution μCT system, Desktop μCT 40 (Scanco Medical A G, Bassersdorf, Switzerland) was used. Micro-tomographic slices were acquired at 1000 projections and reconstructed at a spatial nominal resolution of 12 μm. A constrained 3-D Gaussian filter (σ=0.8 and support=1) was used to partly suppress the noise in the volumes. The mineralized tissue was segmented from the hydrogel using a global thresholding procedure (Muller, R., and Ruegsegger, P. 1997, Stud Health Technol Inform 40, 61-79). In addition to the visual assessment of structural images, morphometric indices were determined from the microtomographic datasets using direct 3D morphometry (Hildebrand, T., 1999, J Bone Miner Res 14, 1167-1174). […] The following morphometric indices were determined for the newly formed bone: (i) volume of bone tissue; (ii) bone mineral density; (iii) trabecular thickness; (iv) anisotropy; (v) bone volume density and (vi) trabecular separation.
Histological analysis of bone formation—Harvested ectopic implants and regenerated limbs were processed for histology and stained as described (Sheyn, Kimelman-Bleich et al. 2007). In short, samples were fixed in 70% ethanol, passed through a graded series of ethanols, and embedded in paraffin. Sections 5-8 μm thick were cut from each paraffin block using a motorized microtome (Leica Microsystems, Wetzlar, Germany). Masson trichrom staining was performed in order to evaluate the histomorphology of the mineralized tissue.
Setting [5] is: fibrin gel with MSCs, 10% PFTBA (w/v), two weeks.

SMILES strings stand for the structures.

Consider `FC(F)(F)C(F)(F)C(F)(F)C(F)(F)N(C(F)(F)C(F)(F)C(F)(F)C(F)(F)F)C(F)(F)C(F)(F)C(F)(F)C(F)(F)F` [PFTBA, Heptacosafluorotributylamine], for which, in data set [1] (day 3 post implantation), the “luciferase activity (cell survival)” value is reported as 21,519±2,047 integrated light units (ILU). Moreover, the “luciferase activity (cell survival) versus no-PFTBA group” value in data set [1] (day 7 post implantation) is reported as “no significant difference between the groups was found”. Further, in the data set on osteocalcin (day 5 post-implantation), the osteocalcin activity is on record as 2.76±0.48 relative light units (RLU; implant/tail). In addition, in the data set with osteocalcin (day 7 and 14), the “osteocalcin activity versus no PFTBA group” value is “no significant difference was noted”. Besides, in the data set with C3H/HeN mice [2] (week 3 post-implantation), the “average connectivity density elevation versus no PFTBA group” value was 1.29 fold, the “bone volume density elevation versus no PFTBA group” value is given as 1.25 fold, the “bone volume difference versus no PFTBA group” value is “this difference was not noted” and the “trabecular number increase versus no PFTBA group” value was found to be 1.44 fold. The “bone volume of spinal fusion mass” value in the data set on C3H/HeN mice [2] (fibrin gel with MSCs, lumbar paravertebral muscle, 6 weeks post implantation) was 70.71±2.7 mm^3. The “cell death (LDH release cytotoxicity) versus 0% PFTBA” value in the data set with tet-off BMP-2 MSCs was “significantly fewer cells died”. In addition, the “volume of bone formed versus no PFTBA” value with C3H/HeN mice [3] (5 or 10% PFTBA (w/v)) is “no significant difference”. Further, in the data set with C3H/HeN mice [3] (5 or 10% PFTBA), the “BMD elevation of the formed bone, supplemented versus non-supplemented” value is 1.1-1.2 and the “trabecular thickness elevation versus no-PFTBA group” value is given as 1.3 fold. In addition, the “bone volume of ectopic bone” value in the data set with C3H/HeN mice [4] (fibrin gel with MSCs, 5% PFTBA (w/v), two weeks) was found to be 0.98±0.26 mm^3. For the same compound, in the data set with C3H/HeN mice [4] (setting [5]), the “bone volume of ectopic bone” value was determined as 1.77±0.47 mm^3 and the “increase in bone volume compared with the 0% PFTBA group” value came to 2.5 fold. Besides, the “histology of implants (bone, hypertrophic cartilage, bone marrow)” value in the data set on C3H/HeN mice [4] (fibrin gel, 0%, 5%, 10% PFTBA, day 14, Masson trichrom) is “No histological difference was found”. In the data set on C3H/HeN mice [4] (two weeks, 1-tailed T-test p=0.033), the “volume of the ectopic bone versus no PFTBA group” value is “significant differences were found”.
